pIC50: −log10 of the molar value.
target: T1, human KSP motor domain (KSP(367H)) (Homo sapiens, UniProt P52732); test: Kinesin ATPase in vitro assay; type: biochemical; conditions: not given
T1 construct: were used to amplify the motor domain and the neck linker region; made in house; host or cells: E. coli BL21 (DE3), vector pRSETa
T1 sequence (P52732 18-359 limits assumed): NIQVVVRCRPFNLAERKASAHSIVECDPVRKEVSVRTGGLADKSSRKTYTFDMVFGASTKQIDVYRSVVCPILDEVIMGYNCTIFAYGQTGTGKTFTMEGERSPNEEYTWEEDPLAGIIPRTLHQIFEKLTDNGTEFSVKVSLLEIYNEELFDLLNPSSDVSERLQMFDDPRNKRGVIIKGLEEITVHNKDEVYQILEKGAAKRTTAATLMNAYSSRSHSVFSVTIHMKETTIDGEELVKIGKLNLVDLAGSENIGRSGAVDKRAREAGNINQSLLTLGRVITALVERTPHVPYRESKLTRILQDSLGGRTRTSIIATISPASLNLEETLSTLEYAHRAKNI
Source text: I. Kinesin ATPase In Vitro Assay
Cloning and Expression of Human Poly-Histidine Tagged KSP Motor Domain (KSP(367H))
Plasmids for the expression of the human KSP motor domain construct were cloned by PCR using a pBluescript full length human KSP construct (Blangy et al., Cell, vol.83, pp 1159-1169, 1995) as a template. The N-terminal primer 5′-[…] (SEQ.ID.NO.: 1) and the C-terminal primer 5′-[…] (SEQ.ID.NO.: 2) were used to amplify the motor domain and the neck linker region. The PCR products were digested with AseI and XhoI, ligated into the NdeI/XhoI digestion product of pRSETa (Invitrogen) and transformed into E. coli BL21 (DE3).
Cells were grown at 37° C. to an OD600 of 0.5. After cooling the culture to room temperature expression of KSP was induced with 100 μM IPTG and incubation was continued overnight. Cells were pelleted by centrifugation and washed once with ice-cold PBS. Pellets were flash-frozen and stored −80° C.
Cell pellets were thawed on ice and resuspended in lysis buffer (50 mM K-HEPES, pH 8.0, 250 mM KCl, 0.1% Tween, 10 mM imidazole, 0.5 mM Mg-ATP, 1 mM PMSF, 2 mM benzimidine, 1× complete protease inhibitor cocktail (Roche)). Cell suspensions were incubated with 1 mg/ml lysozyme and 5 mM β-mercaptoethanol on ice for 10 minutes, followed by sonication (3×30 sec). All subsequent procedures were performed at 4° C. Lysates were centrifuged at 40,000×g for 40 minutes. Supernatants were diluted and loaded onto an SP Sepharose column (Pharmacia, 5 ml cartridge) in buffer A (50 mM K-HEPES, pH 6.8, 1 mM MgCl2, 1 mM EGTA, […], 1 mM DTT) and eluted with a 0 to 750 mM KCl gradient in buffer A. Fractions containing KSP were pooled and incubated with Ni-NTA resin (Qiagen) for one hour. The resin was washed three times with buffer B (Lysis buffer minus PMSF and protease inhibitor cocktail), followed by three 15-minute incubations and washes with buffer B. Finally, the resin was incubated and washed for 15 minutes three times with buffer C (same as buffer B except for pH 6.0) and poured into a column. KSP was eluted with elution buffer (identical to buffer B except for 150 mM KCl and 250 mM imidazole). KSP-containing fractions were pooled, made 10% in sucrose, and stored at −80° C.
Microtubules are prepared from tubulin isolated from bovine brain. Purified tubulin (>97% MAP-free) at 1 mg/ml is polymerized at 37° C. in the presence of 10 μM paclitaxel, 1 mM DTT, 1 mM GTP in BRB80 buffer (80 mM K-PIPES, 1 mM EGTA, 1 mM MgCl2 at pH 6.8). The resulting microtubules are separated from non-polymerized tubulin by ultracentrifugation and removal of the supernatant. The pellet, containing the microtubules, is gently resuspended in 10 μM paclitaxel, 1 mM DTT, 50 μg/ml ampicillin, and 5 μg/ml chloramphenicol in BRB80.
The kinesin motor domain is incubated with microtubules, 1 mM ATP (1:1 MgCl2: Na-ATP), and compound at 23° C. in buffer containing 80 mM K-HEPES (pH 7.0), 1 mM EGTA, 1 mM DTT, 1 mM MgCl2, and 50 mM KCl. The reaction is terminated by a 2-10 fold dilution with a final buffer composition of 80 mM HEPES and 50 mM EDTA. Free phosphate from the ATP hydrolysis reaction is measured via a quinaldine red/ammonium molybdate assay by adding 150 μl of quench C buffer containing a 2:1 ratio of quench A:quench B. Quench A contains 0.1 mg/ml quinaldine red and 0.14% polyvinyl alcohol; quench B contains 12.3 mM ammonium molybdate tetrahydrate in 1.15 M sulfuric acid. The reaction is incubated for 10 minutes at 23° C., and the absorbance of the phospho-molybdate complex is measured at 540 nm.

Compound | pIC50
CC(=O)N1N=C(c2ccccc2Cl)CC1c1cccc(O)c1 (stereo not drawn) [Compound 1-7, 3-[1-acetyl-3-(2-chlorophenyl)-4,5-dihydro-1H-pyrazol-5-yl]phenyl] | ≥ 4.30

same assay, conditions: kinesin motor domain incubated with microtubules, 1 mM ATP and compound at 23° C.; free phosphate by quinaldine red/ammonium molybdate, 540 nm; read-out: IC50

Compound | pIC50
CC(=O)N1N=C(c2cc(F)ccc2F)CC1c1cccc(O)c1 (racemic) [Compound 4-5, 3-[1-acetyl-3-(2,5-difluorophenyl)-4,5-dihydro-1H-pyrazol-5-yl]phenyl] | ≥ 4.30
CC(=O)N1N=C(c2cc(F)ccc2F)C(C)C1c1ccccc1 (single isomer, unassigned) [Compound 12-2, 1-acetyl-3-(2,5-difluorophenyl)-4-methyl-5-phenyl-4,5-dihydro-1H-pyrazole] | ≥ 4.30
CC(C)C(=O)N1N=C(c2ccccc2Cl)CC1c1cccc(O)c1 (stereo not drawn) [Compound 2-1, 3-[3-(2-chlorophenyl)-1-isobutyryl-4,5-dihydro-1H-pyrazol-5-yl]phenyl] | ≥ 4.30
CC(=O)N1N=C(c2ccccc2Cl)CC1(C)c1cccc(O)c1 (stereo not drawn) [Compound 3-3, 3-[1-acetyl-3-(2-chlorophenyl)-5-methyl-4,5-dihydro-1H-pyrazol-5-yl]phenyl] | ≥ 4.30
O=C(N1CCNCC1)N1N=C(c2cc(F)ccc2F)CC1c1ccccc1 (stereo not drawn) [Compound 5-6, 1-{[3-(2,5-difluorophenyl)-5-phenyl-4,5-dihydro-1H-pyrazol-1-yl]carbonyl}piperazine] | ≥ 4.30
CN1N=C(c2cc(F)ccc2F)CC1(C)c1ccccc1 (stereo not drawn) [Compound 6-2, 3-(2,5-difluorophenyl)-1,5-dimethyl-5-phenyl-4,5-dihydro-1H-pyrazole] | ≥ 4.30
NCCCC1(c2ccccc2)CC(c2cc(F)ccc2F)=NN1C(=O)N1CCOCC1 (stereo not drawn) [Compound 7-7, 3-[3-(2,5-difluorophenyl)-1-(morpholin-4-ylcarbonyl)-5-phenyl-4,5-dihydro-1H-pyrazol-5-yl]propan-1-amine] | ≥ 4.30
CS(=O)(=O)N1N=C(c2cc(F)ccc2F)CC1c1ccccc1 (stereo not drawn) [Compound 8-1, 3-(2,5-difluorophenyl)-1-(methylsulfonyl)-5-phenyl-4,5-dihydro-1H-pyrazole] | ≥ 4.30
CCNC(=O)N1N=C(c2cc(F)ccc2F)CC1(CCCN(C)C)c1ccccc1 (stereo not drawn) [Compound 9-2, 3-(2,5-difluorophenyl)-5-[3-(dimethylamino)propyl]-N-ethyl-5-phenyl-4,5-dihydro-1H-pyrazole-1-carboxamide] | ≥ 4.30
CCNC(=O)N1N=C(c2cc(F)ccc2F)CC1(CCCNC(=O)c1ncc[nH]1)c1ccccc1 (stereo not drawn) [Compound 10-2, 3-(2,5-difluorophenyl)-N-ethyl-5-{3-[(1H-imidazol-2-ylcarbonyl)amino]propyl}-5-phenyl-4,5-dihydro-1H-pyrazole-1-carboxamide] | ≥ 4.30
CN(C)C(=O)N1N=C(c2cc(F)ccc2F)CC1(CCC(N)c1ccccc1)c1ccccc1 (stereo not drawn) [Compound 11-2, 5-(3-amino-3-phenylpropyl)-3-(2,5-difluorophenyl)-N,N-dimethyl-5-phenyl-4,5 dihydro-1H-pyrazole-1-carboxamide] | ≥ 4.30
